# Measurements taken from patent publication US7199114B2, “Triterpene quaternary salts as biologically active surfactants” (The Regents of the University of Minnesota, priority 2002, dated 2007).
# What was measured:
# [1] = tested on: Enterococcus faecium Vancomycin-sensitive (first listed); assay: Anti-bacterial activity, broth culture MIC; type: cell-based; settings: Enterococcus faecium, read-out: Approximate Minimum Inhibitory Concentration, MIC
# Experimental: (§1) Several uncharged or negatively charged triterpenes, and several positively charged triterpenes of the invention were tested for anti-bacterial activity against antibiotic-susceptible and antibiotic resistant strains of four types of bacteria of concern in clinics and hospitals. The triterpenes weres tested in broth culture in triplicate for ability to inhibit bacterial growth. The compounds tested are those listed below.
# (§2) The lowest concentration which inhibits bacterial growth is referred to as the minimum inhibitory concentration (MIC), the standard measurement of anti-microbial activity.
# [2] = tested on: Enterococcus faecium Vancomycin-sensitive (second listed); assay: Anti-bacterial activity, broth culture MIC; type: cell-based; settings: Enterococcus faecium, read-out: Approximate Minimum Inhibitory Concentration, MIC
# Experimental: as §1, §2
# [3] = tested on: Eschericia coli Ampicillin-resistant; assay: Anti-bacterial activity, broth culture MIC; type: cell-based; settings: read-out: Approximate Minimum Inhibitory Concentration, MIC
# Experimental: as §1, §2
# [4] = tested on: Staphylococcus aureus Methicillin-resistant; assay: Anti-bacterial activity, broth culture MIC; type: cell-based; settings: Staphylococcus aureus, read-out: Approximate Minimum Inhibitory Concentration, MIC
# Experimental: as §1, §2
# [5] = tested on: Staphylococcus aureus Methicillin-sensitive; assay: Anti-bacterial activity, broth culture MIC; type: cell-based; settings: Staphylococcus aureus, read-out: Approximate Minimum Inhibitory Concentration, MIC
# Experimental: as §1, §2
# dollar spot [6] = assay: Antifungal treatment on turf grass plots (Example 84), dollar spot count; type: in vivo; settings: Table 3 experiment, 17.8 g/1000 sq. ft. (Daconil Ultrex 3.2 oz./1000 sq. ft.)
# Experimental: (§3) Plots of creeping bentgrass, cv. “Pennlinks,” were treated with water based sprays of the test compounds. Sprays were delivered by CO2-charged sprayer to deliver the equivalent of 2 gallons of spray per 1000 sq. ft of plot area. Plots were 15 sq. ft. each, and treatments were mixed to apply material to 75 sq. ft (5 replicates), although only 4 replicates were treated. The quaternary salts of triterpenes were applied at 17.8 g/1000 sq. ft. for 14 days. Daconil Ultrex® was applied at 3.2 oz./1000 sq. ft. for 14 days. The experiment used a randomized complete block design, with 4 replicates per treatment. Disease pressure was high. Pennlinks […] is moderately to highly susceptible to both dollar spot and brown patch. For brown patch, caused by Rhozoctonia sofani. a visual estimate of the percent of the plot area affected was recorded. Turf quality was estimated on a 1 to 9 scale, with 1 being worst and 9 being perfect. A rating of 6 is considered acceptable.
# [7] = tested on: brown patch, caused by Rhozoctonia sofani; assay: Antifungal treatment on turf grass plots (Example 84), brown patch; type: in vivo; settings: Table 3 experiment, 17.8 g/1000 sq. ft. (Daconil Ultrex 3.2 oz./1000 sq. ft.)
# Experimental: as §3
# [8] = Antifungal treatment on turf grass plots (Example 84), turf quality; type: in vivo, creeping bentgrass, cv. Pennlinks; settings: Table 3 experiment, 1 to 9 scale, 9 perfect, 17.8 g/1000 sq. ft. (Daconil Ultrex 3.2 oz./1000 sq. ft.)
# Experimental: as §3
# [9] = tested on: Escherichia coli Ampicillin sensitive; assay: Anti-bacterial activity, broth culture MIC; type: cell-based; settings: read-out: Approximate Minimum Inhibitory Concentration, MIC
# Experimental: as §1, §2
# [10] = tested on: Pseudomonas aeruginosa Antibiotic sensitive; assay: Anti-bacterial activity, broth culture MIC; type: cell-based; settings: read-out: Approximate Minimum Inhibitory Concentration, MIC
# Experimental: as §1, §2
# [11] = tested on: Pseudomonas aeruginosa Multi-drug resistant; assay: Anti-bacterial activity, broth culture MIC; type: cell-based; settings: read-out: Approximate Minimum Inhibitory Concentration, MIC
# Experimental: as §1, §2
# dollar spot [12] = assay: Bentgrass dollar spot trial at Rutgers University, lesion count; type: in vivo; settings: text summary of Table 7
# Experimental: Similar experiments were performed at Rutgers University to test for treatment of bentgrass infected with dollar spot. Test compounds were mixed in aqueous solution with the adjuvant Latron B-1956® (Rohm and Haas) and applied to the grass at a rate of 4.18 fluid ounces per 1000 square feet and an interval of every 7 days. The number of lesions per plot were then counted and averaged over the replicate plots. Treatment with fertilizers or other fungicides were also performed.
# [13] = background statement; cited from earlier work
SMILES,MIC [1],MIC [2],MIC [3],MIC [4],MIC [5],further results
C=C(C)[C@@H]1CCC2(COC(=O)C[n+]3cccc(CNC(N)=O)c3)CC[C@]3(C)C(CCC4[C@@]5(C)CC[C@H](OC(=O)C[n+]6cccc(CNC(N)=O)c6)C(C)(C)C5CC[C@]43C)C12.Cl.Cl (some centres unmarked),,,,,,melting point: 245 to 247 °C (dec.)
"Br.C=C(C[n+]1ccc(N(C)C)cc1)[C@@H]1CC[C@]2(COC(C)=O)CC[C@]3(C)C(CCC4[C@@]5(C)CC[C@H](OC(C)=O)C(C)(C)C5CC[C@]43C)C12 (some centres unmarked) [Compound 12, 1-(3,28-(diacetoxy)lup-20(29)-ene-30-yl)4-(dimethylamino)pyridinium bromide]",2 µg/mL,2 µg/mL,50 µg/mL,5 µg/mL,2 µg/mL,
"C=C(C[N+]12CCN(CC1)CC2)[C@@H]1CC[C@]2(COC(C)=O)CC[C@]3(C)C(CCC4[C@@]5(C)CC[C@H](OC(C)=O)C(C)(C)C5CC[C@]43C)C12.[Br-] (some centres unmarked) [Compound 18, 1-[3,28-(diacetoxy)lup-20(29)-ene-30-yl]-1,4-diazabicyclo[2.2.2]octane bromide]",5 µg/mL,5 µg/mL,,5 µg/mL,5 µg/mL,"Dollar Spot # of spots per plot (dollar spot [6]; Jul. 2, 2001): 20.8 spots per plot; Dollar Spot # of spots per plot (dollar spot [6]; Jul. 9, 2001): 14.3 spots per plot; Dollar Spot # of spots per plot (dollar spot [6]; Jul. 16, 2001): 1.8 spots per plot; Dollar Spot # of spots per plot (dollar spot [6]; Jun. 25, 2001): 16.8 spots per plot; Brown Patch % of plot infected ([7]; Jul. 2, 2001): 37.5%; Brown Patch % of plot infected ([7]; Jul. 9, 2001): significantly suppress brown patch; Brown Patch % of plot infected ([7]; Jul. 9, 2001, listed as Comp. 18): 12.0%; Brown Patch % of plot infected ([7]; Jul. 16, 2001): 6.3%; Brown Patch % of plot infected ([7]; Jun. 25, 2001): 14.8%; Turf quality ([8]; Jul. 2, 2001): 4.63; Turf quality ([8]; Jul. 9, 2001): 5.50; Turf quality ([8]; Jun. 25, 2001): 4.63"
"Br.Br.C=C(C)[C@@H]1CC[C@]2(COC(=O)CCC[N+]34CCN(CC3)CC4)CC[C@]3(C)C(CCC4[C@@]5(C)CC[C@H](OC(=O)CCC[N+]67CCN(CC6)CC7)C(C)(C)C5CC[C@]43C)C12 (some centres unmarked) [Compound 25, Lup-20(29)-ene-3,28-bis[(N-(1,4-diazabicyclo[2.2.21]octyl)4-butyrate)]dibromide]",5 µg/mL,10 µg/mL,100 µg/mL,2 µg/mL,2 µg/mL,MIC [9]: 50 µg/mL
"Br.C=C(C)[C@@H]1CC[C@]2(COC(=O)CCC[n+]3ccc(N(C)C)cc3)CC[C@]3(C)C(CCC4[C@@]5(C)CC[C@H](OC(=O)CCC[n+]6ccc(N(C)C)cc6)C(C)(C)C5CC[C@]43C)C12 (some centres unmarked) [Compound 40, Lup-20(29)-ene3,28-bis [N-(4-dimethylaminopyridinium)4-butyrate] dibromide]",2 µg/mL,5 µg/mL,50 µg/mL,5 µg/mL,5 µg/mL,MIC [9]: 20 µg/mL; MIC [10]: 200 µg/mL; MIC [11]: 200 µg/mL
"CCCCCCCCCC[N+](C)(CCCCCCCCCC)CC(=O)O[C@H]1CC[C@@]2(C)C(CC[C@]3(C)C2CC[C@@H]2C4[C@H]5OC[C@@]4(CCC5(C)C)CC[C@]23C)C1(C)C.[Cl-] (stereo partly drawn) [Compound 80, 3β-[(N-methyl-N,N-didecyl)aminoacetyloxy]-19β,28-epoxy-18α-oleanan chloride]",,,,,,effectiveness against dollar spot (dollar spot [12]): particularly effective
C=C(C)[C@@H]1CC[C@]2(CO)CC[C@]3(C)[C@H](CC[C@@H]4[C@@]5(C)CC[C@H](O)C(C)(C)[C@@H]5CC[C@]43C)[C@@H]12 [betulin],,,,,,solubility in water [13]: about 0.15 mg/l
